Test results from article PMC8585091, “Central Carbon Metabolism, Sodium-Motive Electron Transfer, and Ammonium Formation by the Vaginal Pathogen Prevotella bivia” (International Journal of Molecular Sciences, 2021).

Biological target: T1, cytochrome bd quinol oxidase (Prevotella bivia, UniProt I4Z6X5)
T1 construct: gene PrebiDRAFT_0174; native complex in DDM-solubilized membranes, not purified; ORFs cyd-2 1143 bp and cyd-1 1536 bp; with Cytochrome bd ubiquinol oxidase subunit II
T1 sequence (I4Z6X5 1-511): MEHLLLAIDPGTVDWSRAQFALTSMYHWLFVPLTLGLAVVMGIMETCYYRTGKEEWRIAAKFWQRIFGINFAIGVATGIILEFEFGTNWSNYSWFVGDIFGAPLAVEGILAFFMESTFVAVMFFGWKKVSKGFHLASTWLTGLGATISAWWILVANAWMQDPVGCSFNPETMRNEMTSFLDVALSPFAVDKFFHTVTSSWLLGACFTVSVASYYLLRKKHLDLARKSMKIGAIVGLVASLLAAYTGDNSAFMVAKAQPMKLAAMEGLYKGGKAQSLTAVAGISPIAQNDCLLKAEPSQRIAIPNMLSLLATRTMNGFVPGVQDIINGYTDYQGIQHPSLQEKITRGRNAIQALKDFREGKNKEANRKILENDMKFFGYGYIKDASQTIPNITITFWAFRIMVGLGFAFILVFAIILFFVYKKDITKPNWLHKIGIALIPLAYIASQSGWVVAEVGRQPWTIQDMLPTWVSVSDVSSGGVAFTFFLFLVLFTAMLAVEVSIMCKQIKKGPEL
T1 sequence (I4Z6X4 1-380 partner): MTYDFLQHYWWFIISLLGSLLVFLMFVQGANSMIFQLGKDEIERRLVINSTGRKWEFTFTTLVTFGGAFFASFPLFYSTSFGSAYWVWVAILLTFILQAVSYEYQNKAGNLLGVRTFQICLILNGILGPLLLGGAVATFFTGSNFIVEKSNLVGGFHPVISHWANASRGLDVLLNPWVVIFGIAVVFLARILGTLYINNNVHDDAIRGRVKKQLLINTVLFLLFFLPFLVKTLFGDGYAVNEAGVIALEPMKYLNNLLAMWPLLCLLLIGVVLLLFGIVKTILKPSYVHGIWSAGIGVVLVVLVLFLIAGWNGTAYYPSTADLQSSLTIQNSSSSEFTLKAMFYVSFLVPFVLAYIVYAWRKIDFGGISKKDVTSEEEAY
Experiment: DMNH2 oxidation with H2O2 (peroxidase activity), double-beam photometer
Format: biochemical
Conditions: solubilized membranes; 200 µM DMNH2, H2O2 as acceptor, pH 7.0, 100 mM NaCl, anoxic

SMILES: Cc1c(C)c(O)c2ccccc2c1O [2,3-dimethyl-1,4-naphthoquinol]
- DMNH2 oxidation with H2O2 (peroxidase activity), double-beam photometer: Solubilized membranes catalyzed the oxidation of the DMNH2 with H2O2 as an electron acceptor
